Results reported in patent US20240270679A1, “LIPIDS FOR USE IN LIPID NANOPARTICLE FORMULATIONS” (Acuitas Therapeutics, Inc., priority 2022, published 2024).
Marks after values point to notes of the source that are not given here.

Columns and labels:
[1] = tested on: luciferase expression in the liver; experiment: Luciferase mRNA in vivo evaluation using lipid nanoparticle compositions (liver luciferase expression); parameters: species or system mice; details: tail vein injection, ng luciferase/g liver 4 hours after administration; for Liver Luc @ 0.3 mg/kg: 0.3 mg mRNA/kg; for Liver Luc @ 1.0 mg/kg: 1.0 mg mRNA/kg
Method: (§1) A lipid of structure (I), DSPC, cholesterol and PEG-lipid are solubilized in ethanol at a molar ratio of 50:10:38.5:1.5 or 47.5:10:40.7:1.8. Lipid nanoparticles (LNP) are prepared at a total lipid to mRNA weight ratio of approximately 10:1 to 40:1. Briefly, the mRNA is diluted to 0.2 mg/mL in 10 to 50 mM citrate buffer, pH 4 or 10 to 25 mM acetate buffer, pH 4. Syringe pumps are used to mix the ethanolic lipid solution with the mRNA aqueous solution at a ratio of about 1:5 to 1:3 (vol/vol) with total flow rates above 15 mL/min. The ethanol is then removed, and the external buffer replaced with PBS by dialysis. Finally, the lipid nanoparticles are filtered through a 0.2 µm pore sterile filter.
Studies are performed in 6-8-week-old female C57BL/6 mice (Charles River) or 8-10-week-old CD-1 (Harlan) mice (Charles River) according to guidelines established by an institutional animal care committee (ACC) and the Canadian Council on Animal Care (CCAC). Varying doses of mRNA-lipid nanoparticle are systemically administered by tail vein injection and animals euthanized at a specific time point (e.g., 4 hours) post-administration. Liver and spleen are collected in pre-weighed tubes, weights determined, immediately snap frozen in liquid nitrogen, and stored at −80° C. until processing for analysis.
For liver, approximately 50 mg is dissected for analyses in a 2 mL FastPrep tubes (MP Biomedicals, Solon OH). ¼″ ceramic sphere (MP Biomedicals) is added to each tube and 500 μL of Glo Lysis Buffer—GLB (Promega, Madison WI) equilibrated to room temperature is added to liver tissue. Liver tissues are homogenized with the FastPrep24 instrument (MP Biomedicals) at 2×6.0 m/s for 15 seconds. Homogenate is incubated at room temperature for 5 minutes prior to a 1:4 dilution in GLB and assessed using SteadyGlo Luciferase assay system (Promega). Specifically, 50 μL of diluted tissue homogenate is reacted with 50 μL of SteadyGlo substrate, shaken for 10 seconds followed by 5-minute incubation and then quantitated using a CentroXS^3 LB 960 luminometer (Berthold Technologies, Germany). The amount of protein assayed is determined by using the BCA protein assay kit (Pierce, Rockford, IL). Relative luminescence units (RLU) are then normalized to total μg protein assayed. To convert RLU to ng luciferase a standard curve is generated with QuantiLum Recombinant Luciferase (Promega).
The FLuc mRNA (L-6107) from Trilink Biotechnologies will express a luciferase protein, originally isolated from the firefly, photinus pyralis. FLuc is commonly used in mammalian cell culture to measure both gene expression and cell viability. It emits bioluminescence in the presence of the substrate, luciferin. This capped and polyadenylated mRNA is fully substituted with 5-methylcytidine and pseudouridine.
(§2) Representative compounds of the disclosure shown in Table 2 were formulated using the following molar ratio: 50% cationic lipid/10% distearoylphosphatidylcholine (DSPC)/38.5% Cholesterol/1.5% PEG lipid 2-[2-(ω-methoxy(polyethyleneglycol2000)ethoxy]-N,N-ditetradecylacetamide) or 47.5% cationic lipid/10% DSPC/40.7% Cholesterol/1.8% PEG lipid. Activity was determined by measuring luciferase expression in the liver 4 hours following administration via tail vein injection as described in Example 1 or by measuring the amount of human IgG in mouse serum as described in Example 2. The activity was compared at a dose of 1.0 or 0.5 or 0.3 mg mRNA/kg and expressed as ng luciferase/g liver measured 4 hours after administration, as described in Example 1 or as μg IgG/mL serum measured 24 hours after administration, as described in Example 2. Compound numbers in Table 2 refer to the compound numbers of Table 1.

[2] = Determination of pKa of formulated lipids (TNS fluorescence assay in lipid nanoparticles); format: physicochemical; details: lipid nanoparticles (compound/DSPC/cholesterol/PEG-lipid), lipid formulated in LNP (cationic lipid/DSPC/cholesterol/PEG-lipid), pH of half-maximal fluorescence
Method: As described elsewhere, the pKa of formulated lipids is correlated with the effectiveness of LNPs for delivery of nucleic acids (see Jayaraman et al, Angewandte Chemie, International Edition (2012), 51(34), 8529-8533; Semple et al, Nature Biotechnology 28, 172-176 (2010)). In some embodiments, the preferred range of pKa is ˜5 to ˜7. The pKa of each lipid is determined in lipid nanoparticles using an assay based on fluorescence of 2-(p-toluidino)-6-napthalene sulfonic acid (TNS). Lipid nanoparticles comprising compound of structure (I)/DSPC/cholesterol/PEG-lipid (50/10/38.5/1.5 or 47.5:10:40.7:1.8 mol %) in PBS at a concentration of 0.4 mM total lipid are prepared using the in-line process as described in Example 1. TNS is prepared as a 100 μM stock solution in distilled water. Vesicles are diluted to 24 μM lipid in 2 mL of buffered solutions containing 10 mM HEPES, 10 mM MES, 10 mM ammonium acetate, and 130 mM NaCl, where the pH ranged from 2.5 to 11. An aliquot of the TNS solution is added to give a final concentration of 1 μM and following vortex mixing fluorescence intensity is measured at room temperature in a SLM Aminco Series 2 Luminescence Spectrophotometer using excitation and emission wavelengths of 321 nm and 445 nm. A sigmoidal best fit analysis is applied to the fluorescence data and the pKa is measured as the pH giving rise to half-maximal fluorescence intensity.

human IgG in mouse serum = experiment: Immunoglobulin G (IgG) mRNA in vivo evaluation using lipid nanoparticle compositions (human IgG ELISA); parameters: species or system mice; details: tail vein injection, μg IgG/mL serum 24 hours after administration; for Serum IgG @ 0.3 mg/kg: 0.3 mg mRNA/kg; for Serum IgG @ 1.0 mg/kg: 1.0 mg mRNA/kg
Method: as §1
Studies are performed in 6-8-week-old CD-1/ICR mice (Envigo) according to guidelines established by an institutional animal care committee (ACC) and the Canadian Council on Animal Care (CCAC). Varying doses of mRNA-lipid nanoparticle are systemically administered by tail vein injection and animals euthanized at a specific time point (e.g., 24 hours) post-administration. The whole blood is collected, and the serum subsequentially separated by centrifuging the tubes of the whole blood at 2000×g for 10 minutes at 4° C. and stored at −80° C. until use for analysis.
For immunoglobulin G (IgG) ELISA (Life Diagnostics Human IgG ELISA kit), the serum samples are diluted at 100 to 15000 folds with 1× diluent solution. 100 μL of diluted serum is dispensed into anti-human IgG coated 96-well plate in duplicate alongside human IgG standards and incubated in a plate shaker at 150 rpm at 25° C. for 45 minutes. The wells are washed 5 times with 1× wash solution using a plate washer (400 μL/well). 100 μL of HRP conjugate is added into each well and incubated in a plate shaker at the same condition above. The wells are washed 5 times again with 1× wash solution using a plate washer (400 μL/well). 100 μL of TMB reagent is added into each well and incubated in a plate shaker at the same condition above. The reaction is stopped by adding 100 μL of Stop solution to each well. The absorbance is read at 450 nm (A450) with a microplate reader. The amount of human IgG in mouse serum is determined by plotting A450 values for the assay standard against human IgG concentration.
as §2

| SMILES | pKa [2] | Liver Luc @ 0.3 mg/kg [1] [ng/g] | Liver Luc @ 1.0 mg/kg [1] [ng/g] | Liver Luc, determined at 0.5 mg/kg ([1]; 0.5 mg mRNA/kg (footnote *)) | Serum IgG @ 0.3 mg/kg (human IgG in mouse serum) [µg/mL] | Serum IgG @ 1.0 mg/kg (human IgG in mouse serum) [µg/mL] |
| --- | --- | --- | --- | --- | --- | --- |
| CCCCCCCCCCCCCC(=O)NCCCCN(C)CCN(CCCCCC(=O)OCC(CCCCCC)CCCCCCCC)CCCCCC(=O)OCC(CCCCCC)CCCCCCCC (centres unmarked) [Compound I-3, bis(2-hexyldecyl) 6,6′-((2-(methyl(4-tetradecanamidobutyl)amino)ethyl)azanediyl)dihexanoate] | 6.7 |  |  | 31 ± 6* ng/g |  |  |
| CCCCCCCC(=O)NCCCCN(C)CCN(CCCCCCCCCOC(=O)C(CCCC)CCCCCC)CCCCCCCCCOC(=O)C(CCCC)CCCCCC (centres unmarked) [Compound I-6, ((2-(methyl(4-octanamidobutyl)amino)ethyl)azanediyl)bis(nonane-9,1-diyl)bis(2-butyloctanoate)] | 6.56 | 12241 ± 3108 | 67044 ± 44033 |  |  |  |
| CCCCCCCCC(CCCCCC)C(=O)OCCCCCCN(CCCCCCOC(=O)C(CCCCCC)CCCCCCCC)CCN(C)CCCC(=O)N(CCCC)CCCC (centres unmarked) [Compound I-8, ((2-((4-(dibutylamino)-4-oxobutyl)(methyl)amino)ethyl)azanediyl)bis(hexane-6,1-diyl)bis(2-hexyldecanoate)] | 6.13 | 16110 ± 2654 | 56927 ± 16125 |  |  |  |
| CCCCCCCCC(CCCCCC)COC(=O)CCCCCN(CCCCCC(=O)OCC(CCCCCC)CCCCCCCC)CCN(C)CCCCCC(=O)NCC(CC)CCCC (centres unmarked) [Compound I-11, bis(2-hexyldecyl) 6,6′-((2-((6-((2-ethylhexyl)amino)-6-oxohexyl)(methyl)amino)ethyl)azanediyl)dihexanoate] | 6.27 | 16601 ± 5871 | 66075 ± 18868 |  |  |  |
| CCCCCCCCC(CCCCCC)C(=O)OCCCCCCN(CCCCCCOC(=O)C(CCCCCC)CCCCCCCC)CCCCN(C)CCCCC(=O)N(CCCCCC)CCCCCC (centres unmarked) [Compound I-47, ((4-((5-(dihexylamino)-5-oxopentyl)(methyl)amino)butyl)azanediyl)bis(hexane-6,1-diyl)bis(2-hexyldecanoate)] | 6.45 |  |  |  | 15.3 ± 3.7 | 61.8 ± 11.5 |
| CCCCCCCCCCN(CCCCCCCCCC)C(=O)CCCCN(C)CCCCN(CCCCCCOC(=O)C(CCCCCC)CCCCCCCC)CCCCCCOC(=O)C(CCCCCC)CCCCCCCC (centres unmarked) [Compound I-48, ((4-((5-(didecylamino)-5-oxopentyl)(methyl)amino)butyl)azanediyl)bis(hexane-6,1-diyl)bis(2-hexyldecanoate)] | 6.37 |  |  |  | 4.4 ± 1.1 | 21.8 ± 5.0 |

Continued, in another order:

| pKa [2] | SMILES | Liver Luc @ 0.3 mg/kg [1] [ng/g] | Liver Luc @ 1.0 mg/kg [1] [ng/g] | Liver Luc, determined at 0.5 mg/kg ([1]; 0.5 mg mRNA/kg (footnote *)) | Serum IgG @ 0.3 mg/kg (human IgG in mouse serum) [µg/mL] | Serum IgG @ 1.0 mg/kg (human IgG in mouse serum) [µg/mL] |
| --- | --- | --- | --- | --- | --- | --- |
| 6.64 | CCCCCCCCC(CCCCCC)COC(=O)CCCCCN(CCCCCC(=O)OCC(CCCCCC)CCCCCCCC)CCN(C)CCCCNC(=O)CCCCCCC (centres unmarked) [Compound I-1, bis(2-hexyldecyl) 6,6′-((2-(methyl(4-octanamidobutyl)amino)ethyl)azanediyl)dihexanoate] | 5497 ± 1457 | 13160 ± 5805 |  |  |  |
| 6.7 | CCCCCCCCC(=O)NCCCN(C)CCN(CCCCCCCC(=O)OCC(CCCCCC)CCCCCCCC)CCCCCCCC(=O)OCC(CCCCCC)CCCCCCCC (centres unmarked) [Compound I-4, bis(2-hexyldecyl) 8,8′-((2-(methyl(3-nonanamidopropyl)amino)ethyl)azanediyl)dioctanoate] | 7747 ± 1565 | 24964 ± 8175 |  |  |  |
| 6.68 | CCCCCCCCC(CCCCCC)COC(=O)CCCCCCCN(CCCCCCCC(=O)OCC(CCCCCC)CCCCCCCC)CCN(C)CCCCNC(=O)CCCCCCC (centres unmarked) [Compound I-5, bis(2-hexyldecyl) 8,8′-((2-(methyl(4-octanamidobutyl)amino)ethyl)azanediyl)dioctanoate] | 6538 ± 11243 | 43609 ± 9207 |  |  |  |
| 6.57 | CCCCCCCCCCNC(=O)CCCCCN(C)CCN(CCCCCC(=O)OCC(CCCCCC)CCCCCCCC)CCCCCC(=O)OCC(CCCCCC)CCCCCCCC (centres unmarked) [Compound I-7, bis(2-hexyldecyl) 6,6′-((2-((6-(decylamino)-6-oxohexyl)(methyl)amino)ethyl)azanediyl)dihexanoate] | 10812 ± 2335 | 44836 ± 12026 |  |  |  |
| 6.33 | CCCCCCCCC(CCCCCC)COC(=O)CCCCCN(CCCCCC(=O)OCC(CCCCCC)CCCCCCCC)CCN(C)CCCCCC(=O)N(C)CCCCCCCC (centres unmarked) [Compound I-10, bis(2-hexyldecyl) 6,6′-((2-(methyl(6-(methyl(octyl)amino)-6-oxohexyl)amino)ethyl)azanediyl)dihexanoate] | 9794 ± 1750 | 43271 ± 18103 |  |  |  |
| 6.34 | CCCCCCCCC(CCCCCC)COC(=O)CCCCCN(CCCCCC(=O)OCC(CCCCCC)CCCCCCCC)CCCN(C)CCCCC(=O)N(CCCCCC)CCCCCC (centres unmarked) [Compound I-49, Bis(2-hexyldecyl) 6,6′-((3-((5-(dihexylamino)-5-oxopentyl)(methyl)amino)propyl)azanediyl)dihexanoate] |  |  |  | 42.4 ± 11.7 | 120.6 ± 31.7 |
